Experiments:
eIF2α = eIF2α phosphorylation-promoting activity (western blotting of 293A cell lysates); assay type: cell-based; conditions: 293A cells, 16 hours at 37° C., Compound No. 1 at 5 μM, halofuginone at 50 nM, thapsigargin at 200 nM, FIG. 3
Protocol: • Host cells: 293A cells • Evaluation compound: Compound No. 1 of the present invention was used, and […] thereof was dissolved in 20 μL of DMSO to prepare a 20 mM solution. • Thapsigargin: (Cayman Chemical Company)
10 mg was dissolved in 76.8 mL of DMSO to prepare a 200 μM solution. • Halofuginon: (Cayman Chemical Company)
5 mg was dissolved in 554.2 μL of DMSO to prepare a 20 mM solution.
The above-mentioned 293A cells were seeded in a 96-well plate at 5×10^5 cells/well, and were cultured overnight in a DMEM solution of 10% fetal bovine serum (FBS). The next day, the medium was changed to a DMEM solution of 10% fetal bovine serum (FBS) containing Compound No. 1 at 5 μM, halofuginone at 50 nM, or thapsigargin at 200 nM, and the cells were cultured at 37° C. for 16 hours. After the cells had been washed with a PBS buffer, the cells were lysed with a RIPA buffer to extract proteins, and the proteins were separated according to size by an electrophoresis method of SDS-PAGE. The expression amount of an endoplasmic reticulum stress marker was measured by a western blotting method.

human topoisomerase I = molecular target: T1, human topoisomerase I (Homo sapiens, UniProt P11387); experiment: Human topoisomerase I DNA relaxation assay (ProFoldin kit); assay type: biochemical; conditions: 5 μL of evaluation sample solution (100 μM), fluorescence 485/535 nm, FIG. 4
T1 construct: purchased ProFoldin HRA100KE
T1 sequence (P11387 1-765): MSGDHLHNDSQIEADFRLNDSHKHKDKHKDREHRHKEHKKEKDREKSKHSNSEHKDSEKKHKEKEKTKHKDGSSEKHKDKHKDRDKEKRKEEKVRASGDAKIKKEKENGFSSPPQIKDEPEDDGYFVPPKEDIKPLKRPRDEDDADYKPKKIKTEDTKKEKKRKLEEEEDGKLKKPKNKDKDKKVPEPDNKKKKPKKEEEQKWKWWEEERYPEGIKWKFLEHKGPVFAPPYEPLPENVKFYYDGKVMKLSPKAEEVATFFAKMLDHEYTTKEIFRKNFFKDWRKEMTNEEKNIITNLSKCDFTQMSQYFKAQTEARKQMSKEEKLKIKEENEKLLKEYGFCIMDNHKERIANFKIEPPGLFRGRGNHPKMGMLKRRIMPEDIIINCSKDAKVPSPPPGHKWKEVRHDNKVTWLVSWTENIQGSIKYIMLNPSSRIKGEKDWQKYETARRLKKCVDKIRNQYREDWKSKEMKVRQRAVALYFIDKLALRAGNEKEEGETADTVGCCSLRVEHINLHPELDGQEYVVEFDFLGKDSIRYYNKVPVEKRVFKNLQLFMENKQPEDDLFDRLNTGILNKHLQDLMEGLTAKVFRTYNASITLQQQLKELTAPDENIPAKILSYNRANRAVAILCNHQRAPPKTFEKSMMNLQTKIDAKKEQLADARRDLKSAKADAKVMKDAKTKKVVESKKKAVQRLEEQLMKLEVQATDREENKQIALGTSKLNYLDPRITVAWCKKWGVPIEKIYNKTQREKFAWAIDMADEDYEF
Protocol: (§1) • Evaluation compound: Compound No. 1 of the present invention was used, and […] thereof was dissolved in 20 μL of DMSO to prepare a 20 mM solution. • Camptothecin: (FUJIFILM Wako Pure Chemical Corporation) 100 mg was dissolved in 57.4 mL of DMSO to prepare a 5 mM solution. • Etoposide: (FUJIFILM Wako Pure Chemical Corporation) 25 mg was dissolved in 424.8 μL of DMSO to prepare a 100 mM solution. • Human topoisomerase I/DNA relaxation assay kit […] (Manufactured by ProFoldin) • Human topoisomerase II/DNA relaxation assay kit HD[…] (Manufactured by ProFoldin) Measurement was performed in accordance with an instruction manual of ProFoldin. […] After the reaction, centrifugation was performed at 1,300 rpm for 30 seconds, and the reaction liquid was poured into a spin-column. The spin-column was rotated at 1,300 rpm for 2 minutes, and the liquid that had flowed out of the column was poured into a 96-well black plate. The liquid that had flowed out was subjected to a reaction by adding a fluorescent dye solution (up to 150 μL). The intensity of fluorescence excited with light at 485 nm was measured at 535 nm.

human topoisomerase II = experiment: Human topoisomerase II DNA relaxation assay (ProFoldin kit); assay type: biochemical; conditions: 5 μL of evaluation sample solution (100 μM), fluorescence 485/535 nm, FIG. 4
Protocol: as §1

mouse naive CD4+ T cells = experiment: Th17 cell differentiation-suppressing activity (flow cytometry); assay type: cell-based; conditions: Compound No. 1 at 5 μM, halofuginone at 50 nM, 5 days of differentiation culture, FIG. 5
Protocol: Evaluation compound: Compound No. 1 of the present invention was used, and […] thereof was dissolved in 20 μL of DMSO to prepare a 20 mM solution. • Halofuginon: (Cayman Chemical Company)
5 mg was dissolved in 554.2 μL of DMSO to prepare a 20 mM solution. • Th17 cell inducer: A Th17 cell differentiation induction kit containing IL-6 and TGFβ1 as main components (CellXVivo Mouse Th17 Cell Differentiation Kit: R&D Systems) • Mouse helper T cell differentiation induction kit CDK017 (Techne Corporation)
Measurement was performed in accordance with an instruction manual of Techne Corporation. First, a cell culture plate was coated with an anti-hamster CD3 antibody. Mouse spleen cells were isolated into single cells, and mouse naive CD4^+ T cells were isolated using a mouse naive CD4^+ T cell isolation kit (MagCellect). The number of cells was counted. The isolated mouse naive CD4^+ T cells were dispersed in a mouse Th17 differentiation medium at 1×10^6 cells/mL. Compound No. 1 and halofuginone were added to the mouse Th17 differentiation medium at 5 μM and 50 nM, respectively. Next, the medium having the cells dispersed therein was added to the plate coated with the anti-hamster CD3 antibody, and humidified culture was continued for 3 days at 37° C. in the presence of 5% CO2. On the 3rd day, the medium was refreshed by adding an equal amount of the mouse Th17 differentiation medium without removing the original culture medium. Humidified culture was continued for 2 days at 37° C. in the presence of 5% CO2. After the 5 days of differentiation culture, the differentiated mouse Th17 cells were subjected to flow cytometry to analyze the expression of cytokines, and the number of cells differentiated into Th17 cells was determined.

Compound | eIF2α phosphorylation-promoting effect (phosphorylated eIF2α expression amount) (eIF2α) | topoisomerase-inhibiting activity, human topoisomerase I (human topoisomerase I) | topoisomerase-inhibiting activity, human topoisomerase II (human topoisomerase II) | suppression of differentiation from mouse naive CD4+ T cells into Th17 cells (mouse naive CD4+ T cells) | also measured
1-(2-chloro-5-methylphenyl)-4-oxo-7-(4-pyridyl)-naphthyridine [Compound No. 1] | had an eIF2α phosphorylation-promoting effect | did not show topoisomerase-inhibiting activity | did not show topoisomerase-inhibiting activity | remarkably suppressed differentiation | eIF2α phosphorylation-promoting effect (phosphorylated eIF2α expression amount) (eIF2α; listed as No. 1): eIF2α phosphorylation-promoting effect; topoisomerase-inhibiting activity, human topoisomerase I (human topoisomerase I; listed as No. 1): free of topoisomerase-inhibiting activity; topoisomerase-inhibiting activity, human topoisomerase II (human topoisomerase II; listed as No. 1): free of topoisomerase-inhibiting activity; suppression of differentiation from mouse naive CD4+ T cells into Th17 cells (mouse naive CD4+ T cells; listed as No. 1): has Th17 cell differentiation-suppressing activity
CC[C@@]1(O)C(=O)OCc2c1cc1n(c2=O)Cc2cc3ccccc3nc2-1 [camptothecin, reference compound] | – | remarkably reduced topoisomerase I activity | – | – | –
COc1cc([C@@H]2c3cc4c(cc3[C@@H](O[C@@H]3O[C@@H]5CO[C@@H](C)O[C@H]5[C@H](O)[C@H]3O)[C@H]3COC(=O)[C@H]23)OCO4)cc(OC)c1O [etoposide, reference compound] | – | – | remarkably reduced topoisomerase II activity | – | –
O=C(CC1NCCCC1O)Cn1cnc2cc(Br)c(Cl)cc2c1=O (stereo not shown) [halofuginone, reference compound] | eIF2α phosphorylation-promoting effect | – | – | capable of inhibiting the induction of differentiation into Th17 cells | –
C/C=C(/C)C(=O)O[C@H]1C(C)=C2[C@H]([C@@H]1OC(=O)CCCCCCC)[C@@](C)(OC(C)=O)C[C@H](OC(=O)CCC)[C@@]1(O)[C@H]2OC(=O)[C@@]1(C)O [thapsigargin, reference compound] | eIF2α phosphorylation-promoting effect | – | – | – | –

Source: patent US20260193258A1, “AGENT FOR PROMOTING PHOSPHORYLATION OF eIF2a” (ER Stress Research Institute, Inc., priority 2019, published 2026)
